Assay results from patent US10039843B2, “Paramagnetic solid lipid nanoparticles (pSLNs) containing metal amphiphilic complexes for MRI” (BRACCO IMAGING S.P.A., priority 2012, dated 2018).

Assay: Relaxivity values of some known compounds for MRI (Table I)
Assay type: physicochemical
Settings: 0.47 T, 25° C., pH 7; for r1p HSA 4%: HSA 4% in NaCl 0.9%
From the text: As mentioned above, pSLNs usually show very high relaxivity in physiological medium, higher than values typically found in non-derivatized hydrophilic gadolinium complexes, in particular when formulated in SLNs, as better detailed in the experimental part for some representative compounds. As an example, relaxivity values for some Gd(III)complexes are indicated below, where values measured in physiologic conditions refer to those in obtained HSA 4% in NaCl 0.9%.

Row | SMILES | r1p HSA 4% [mM⁻¹ s⁻¹] | r1p Human plasma (HP) [mM⁻¹ s⁻¹] | r1p Water [mM⁻¹ s⁻¹]
1 | O=C([O-])CN1CCN(CC(=O)[O-])CCN([C@H](CO)[C@H](O)CO)CCN(CC(=O)[O-])CC1.[Gd+3] (racemic) [Gd-BT-DO3A, Gadobutrol] | 4.31 | 5.76 | 3.75
2 | C[NH2+]C[C@H](O)[C@@H](O)[C@H](O)[C@H](O)CO.O=C([O-])CN1CCN(CC(=O)[O-])CCN(CC(=O)[O-])CCN(CC(=O)[O-])CC1.[Gd+3] [Gd-DOTA, Gadoterato meglumine [[1,4,7,10-tetraazacyclododecane-1,4,7,10-tetraacetate (4-)] gadolinate (1-)] meglumine] | 4.11 | 4.51 | 3.61
3 | CC(O)CN1CCN(CC(=O)[O-])CCN(CC(=O)[O-])CCN(CC(=O)[O-])CC1.[Gd+3] (stereo not drawn) [Gd-HP-DO3A, Gadoteridol[10-(2-hydroxyprop-1-yl) -1,4,7,10-tetraazacyclododecane-1,4,7-triacetate(3-)] gadolinium] | 3.85 | 4.80 | 3.32
